Assay results reported in publication PMC11123841, “Discovery and Synthesis of Hydroxy-L-Proline Blockers of the Neutral Amino Acid Transporters SLC1A4 (ASCT1) and SLC1A5 (ASCT2)” (Molecules, 2024).
Where two headings read alike, the source gives them in different places. One block for each molecule: values may come before it.

Legend:
mSLC1A5 = molecular target: T1, mSLC1A5 (Mus musculus, UniProt P51912); assay: TEVC block of anion leak conductance in oocytes; format: cell-based
T1 construct: expressed in transfected cells; host or cells: Xenopus laevis oocytes (cRNA injection)
T1 sequence (P51912 1-553): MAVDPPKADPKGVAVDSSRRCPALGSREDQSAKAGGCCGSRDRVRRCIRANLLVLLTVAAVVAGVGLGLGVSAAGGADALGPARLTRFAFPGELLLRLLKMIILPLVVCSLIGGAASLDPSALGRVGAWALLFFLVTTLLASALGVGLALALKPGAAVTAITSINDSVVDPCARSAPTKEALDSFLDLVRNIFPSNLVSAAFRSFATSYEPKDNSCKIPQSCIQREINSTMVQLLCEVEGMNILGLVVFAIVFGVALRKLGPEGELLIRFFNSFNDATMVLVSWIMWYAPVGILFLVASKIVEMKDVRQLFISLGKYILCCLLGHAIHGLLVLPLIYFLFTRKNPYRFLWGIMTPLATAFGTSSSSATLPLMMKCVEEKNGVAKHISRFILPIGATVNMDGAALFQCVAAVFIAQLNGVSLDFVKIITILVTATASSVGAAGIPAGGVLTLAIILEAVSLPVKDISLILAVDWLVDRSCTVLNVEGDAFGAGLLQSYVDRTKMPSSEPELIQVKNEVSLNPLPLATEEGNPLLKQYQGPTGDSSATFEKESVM
Excerpt: (§1) The currents induced by substrates and blocked by hydroxyproline analogs shared a reversal potential shown in the current/voltage relationship consistent with the conductance originating from the same ion pore (Figure 3, inset). […] The observed dose–response relationships are independent of competing substrates, and thus provide a direct measure of the equilibrium inhibition constant (Ki). Each synthetic hydroxyproline analog was functionally assessed for its capacity to inhibit SLC1A4 and SLC1A5 leak currents with affinities reported in Table 1 as determined or approximated Ki.
(§2) Two-electrode voltage clamp (TEVC) transporter currents were recorded with a GeneClamp 500 amplifier and Digidata 1320A analog–digital interface (Molecular Devices, San Jose, CA, USA). Electrodes (0.2–1.0 MΩ) were filled with 3M KCl and the recording chamber was grounded with an agar bridge. Data were acquired with Axograph (v1.7.6) and LabChart (v7) and analyzed with Kaleidagraph software (v4.1) (Synergy, Reading, PA, USA). Uncoupled anion currents associated with the transport of substrate and block of SLC1A4 or SLC1A5 mediated leak conductance were recorded in the presence of Ringer with 50% substitution of NaCl by NaSCN to amplify the non-transported anion conductance.
(§3) Figure 3 AHPCs block a leak current in SLC1A4 and SLC1A5. […] Inset (A): The current and voltage relationship for SLC1A4 currents activated by Ala or blocked by 14b are determined by subtracting voltage jumps in buffer.

SLC1A4 [1] = molecular target: T2, SLC1A4 (Homo sapiens, UniProt P43007); assay: TEVC block of anion leak conductance in oocytes; format: cell-based
T2 construct: expressed in transfected cells; host or cells: Xenopus laevis oocytes (cRNA injection)
T2 sequence (P43007 1-532): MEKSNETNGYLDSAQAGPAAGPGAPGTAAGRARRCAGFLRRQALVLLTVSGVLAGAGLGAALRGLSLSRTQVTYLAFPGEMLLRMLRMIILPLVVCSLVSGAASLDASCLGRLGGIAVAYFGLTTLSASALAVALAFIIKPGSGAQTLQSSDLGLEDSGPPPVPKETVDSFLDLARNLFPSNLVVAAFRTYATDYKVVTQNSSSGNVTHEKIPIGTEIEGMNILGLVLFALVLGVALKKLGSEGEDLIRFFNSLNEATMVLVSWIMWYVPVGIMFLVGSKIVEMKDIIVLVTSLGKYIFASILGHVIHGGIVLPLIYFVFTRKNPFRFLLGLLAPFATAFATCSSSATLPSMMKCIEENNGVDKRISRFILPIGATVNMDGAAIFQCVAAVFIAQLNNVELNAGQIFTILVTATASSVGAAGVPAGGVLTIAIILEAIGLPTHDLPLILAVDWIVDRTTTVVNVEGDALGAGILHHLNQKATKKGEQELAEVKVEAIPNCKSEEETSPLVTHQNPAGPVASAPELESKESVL
Excerpt: as §1, §2, §3

SLC1A5 = molecular target: T3, SLC1A5 (Mus musculus, UniProt P51912); assay: [3H]L-alanine heteroexchange (trans-stimulation) in preloaded oocytes; format: cell-based; details: 3 µM BPOHP, 1 mM L-alanine
T3 construct: expressed in transfected cells; host or cells: Xenopus laevis oocytes (cRNA injection)
T3 sequence (P51912 1-553): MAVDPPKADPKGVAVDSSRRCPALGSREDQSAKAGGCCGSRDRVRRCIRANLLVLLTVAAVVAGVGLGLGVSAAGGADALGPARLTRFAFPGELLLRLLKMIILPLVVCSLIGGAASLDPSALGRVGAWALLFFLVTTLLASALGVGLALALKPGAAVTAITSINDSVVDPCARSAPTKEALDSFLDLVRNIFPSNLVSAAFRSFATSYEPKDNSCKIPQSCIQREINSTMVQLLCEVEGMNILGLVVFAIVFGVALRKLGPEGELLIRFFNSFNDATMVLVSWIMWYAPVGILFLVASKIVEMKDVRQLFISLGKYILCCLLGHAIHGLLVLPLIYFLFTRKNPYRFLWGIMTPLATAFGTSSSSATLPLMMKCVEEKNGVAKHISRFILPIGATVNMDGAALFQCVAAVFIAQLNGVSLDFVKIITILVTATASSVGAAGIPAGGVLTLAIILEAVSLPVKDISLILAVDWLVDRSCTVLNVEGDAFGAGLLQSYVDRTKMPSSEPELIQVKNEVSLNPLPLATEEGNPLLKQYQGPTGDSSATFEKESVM
Description: (§4) Uptake was halted by washing 3 times with 4 °C ND96 buffer. Oocytes were then lysed in 0.1% Triton X-100, and radioactivity was counted via liquid scintillation. Dose response curves were generated by fitting fractional inhibition (I) to the expression I = Imax × [inhibitor]/([inhibitor] + IC50).

SLC1A4 [2] = molecular target: T2, SLC1A4; assay: as above; format: cell-based; details: 3 µM BPOHP, 1 mM L-alanine
Description: as §4

SLC1A4 [3] = details: concentrations up to 1 mM, oocytes expressing SLC1A4; cited from earlier work
ASCT = details: extracellular 300 µM; cited from earlier work
[4] = mSLC1A5, from dose–response of blocked anion conductance, compounds tested only once without standard error, read-out: SLC1A5 Ki
[5] = from dose–response of blocked anion conductance, compounds tested only once without standard error, read-out: SLC1A4 Ki

SMILES: C[C@]1(O)CN[C@H](C(=O)O)C1 [compound 26, cis-4-methyl-trans-4-hydroxy-L-proline]
SLC1A4 Ki (µM) (SLC1A4 [1]; from dose–response of blocked anion conductance, compounds tested only once without standard error): No Block

SMILES: O=C(O)C1NCC(Oc2ccccc2)C1O (stereo not drawn) [12a]
Ki (mSLC1A5; [4]): 141 ± 20 µM
Ki (SLC1A4 [1]; [5]): 150 ± 43 µM

SMILES: C[C@H](N)C(=O)O [L-Ala, L-alanine, reference compound]
[3H]L-alanine exchange (SLC1A5): induces exchange
[3H]L-alanine exchange (SLC1A4 [2]): induces exchange

SMILES: CC1C(O)CNC1C(=O)O (stereo not drawn) [10b]
Ki (mSLC1A5; [4]): 922 ± 316 µM
Ki (SLC1A4 [1]; [5]): 564 ± 149 µM

SMILES: CC1CNC(C(=O)O)C1O [10a, trans-3-hydroxy-cis-4-methyl-L-proline]
block of anion leak conductance / inhibition (mSLC1A5; SLC1A5): no inhibition of transport
Ki (mSLC1A5; [4]): 1150 ± 283 µM
block of anion leak conductance / inhibition (SLC1A4 [1]; SLC1A4): no inhibition of transport
Ki (SLC1A4 [1]; [5]): 1050 ± 110 µM

SMILES: O=C(O)C1NCC(Oc2ccccc2)C1O [12c, (2S,3R,4S)-3-hydroxy-4-phenoxypyrrolidin-2-carboxylate]
Ki (mSLC1A5; [4]): ~150 µM
Ki (SLC1A4 [1]; [5]): ~150 µM

SMILES: O=C(O)[C@@H]1CCCN1 [L-proline]
chloride currents (SLC1A4 [3]): does not elicit detectable chloride currents
heteroexchange release of intracellular radiolabeled ASCT substrates (ASCT): capable of inducing heteroexchange release

Further lines, results first:

Ki (mSLC1A5; SLC1A5, read-out: Ki): > 500 µM
Ki (SLC1A4 [1]; SLC1A4, read-out: Ki): > 500 µM
SMILES: O=C(O)[C@H]1NC[C@H](OCc2ccccc2)[C@H]1O [17c, cis-3-hydroxy-trans-4-benzyloxy-L-proline]

Ki (mSLC1A5; [4]): ~400 µM
Ki (SLC1A4 [1]; [5]): 505 ± 105 µM
SMILES: CC(C)O[C@H]1CN[C@H](C(=O)O)[C@@H]1O [17b]

Ki (mSLC1A5; SLC1A5, read-out: Ki): > 500 µM
Ki (SLC1A4 [1]; SLC1A4, read-out: Ki): > 500 µM
SMILES: CO[C@H]1CN[C@H](C(=O)O)[C@@H]1O [17a]
